Experimental data: patent publication US11827628B2, “Compositions and methods for inhibition of the JAK pathway” (Rigel Pharmaceuticals, Inc., priority 2005, dated 2023)

Experiments:
[1] = system: IL-4 stimulated expression of CD23 in human Ramos B cells (JAK-1 and JAK-3); assay: Assay for Ramos B-Cell Line Stimulated with IL-4 (CD23 upregulation, FACS); type: cell-based; details: Ramos B-cell line stimulated with IL-4; CD23 expression by FACS; read-out: IC50, Example 41
Procedure, shortened: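 Read-out: anti-CD23-PE flow cytometry on Ramos B cells, giving IC50. Cells (5×10^4 per point, RPMI + 5% serum) get compound or DMSO for 1 h at 37 °C, then IL-4 50 units/mL final for 20-24 h.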

[2] = system: up-regulation of ICAM-1 (CD54) by IFNγ in U937 human monocytic cells; assay: U937 IFNγ ICAM1 FACS Assay; type: cell-based; details: U937 cells stimulated with IFNγ; ICAM-1 expression by FACS; read-out: IC50, Example 44
Procedure, shortened: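 U937 cells in 10% FCS RPMI were preincubated 30 min at 37 °C with an 8-point, 3-fold compound dilution series in duplicate, then stimulated with IFNγ for 18–24 h. Surface ICAM-1 was stained with APC anti-ICAM-1 and read by flow cytometry as geometric mean on live-gated cells. EC50 was derived.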

| IC50 [1] | IC50 [2] | SMILES |
| --- | --- | --- |
| 265 nM | 11100 nM | Cc1cc(Nc2nc(Nc3cccc(S(N)(=O)=O)c3)ncc2F)cc(C)c1OCC(N)=O [Compound I-93, N4-(4-Aminocarbonylmethoxy-3,5-dimethyl)phenyl-N2-(3-aminosulfonyl)phenyl-5-fluoro-2,4-pyrimidinediamine] |
| 180 nM | 3430 nM | NS(=O)(=O)c1cccc(Nc2ncc(F)c(Nc3ccc(Cn4ccnc4)cc3)n2)c1 [III-81, N2-(3-Aminosulfonylphenyl)-5-fluoro-N4-[4-(1-imidazolylmethyl)phenyl]-2,4-pyrimidinediamine] |
| 127 nM | 2270 nM | Cc1ccc(Nc2ncc(F)c(Nc3ccc(Cn4ccnc4)cc3)n2)cc1S(N)(=O)=O [III-82, N2-(3-Aminosulfonyl-4-methylphenyl)-5-fluoro-N4-[4-(1-imidazolylmethyl)phenyl]-2,4-pyrimidinediamine] |
| 98.7 nM | 1360 nM | CNS(=O)(=O)c1cc(Nc2ncc(F)c(Nc3ccc(Cn4ccnc4)cc3)n2)ccc1C [III-83, 5-Fluoro-N2-[3-(N-methylaminosulfony)-4-methylphenyl]-5-fluoro-N4-[4-(1-imidazolylmethyl)phenyl]-2,4-pyrimidinediamine] |
| 345 nM | 5670 nM | Cc1ccc(Nc2ncc(F)c(Nc3ccc(OCC(N)=O)cc3)n2)cc1S(N)(=O)=O [Compound I-94, N4-(4-Aminocarbonylmethoxy)phenyl-N2-(3-aminosulfonyl-4-methyl)phenyl-5-fluoro-2,4-pyrimidinediamine] |
| 166 nM | 15600 nM | Cc1cc(Nc2nc(Nc3cccc(S(N)(=O)=O)c3)ncc2F)ccc1OCC(N)=O [Compound I-92, N4-(4-Aminocarbonylmethoxy-3-methyl)phenyl-N2-(3-aminosulfonyl)phenyl-5-fluoro-2,4-pyrimidinediamine] |
| 118 nM | 6300 nM | Cc1cc(Nc2nc(Nc3ccc(C)c(S(N)(=O)=O)c3)ncc2F)ccc1OCC(N)=O [Compound I-95, N4-(4-Aminocarbonylmethoxy-3-methyl)phenyl-N2-(3-aminosulfonyl-4-methyl)phenyl-5-fluoro-2,4-pyrimidinediamine] |
|  | 356 nM | Cc1ccc(Nc2ncc(F)c(Nc3ccc4c(c3)CCN4S(C)(=O)=O)n2)cc1S(N)(=O)=O [VII-61, N2-(3-Aminosulfonyl-4-methylphenyl)-5-fluoro-N4-[4-(1-methylsulfonyl)indolin-5-yl]-2,4-pyrimidinediamine] |

More lines, now with the values behind:

| SMILES | IC50 [1] | IC50 [2] |
| --- | --- | --- |
| CC(C)(C#N)Oc1ccc(Nc2nc(Nc3ccc(S(N)(=O)=O)cc3)ncc2F)cc1 [Compound I-75, N2-(4-Aminosulfonyl)phenyl-N4-[4-(1-cyano-1-methyl)ethoxy]phenyl-5-fluoro-2,4-pyrimidinediamine] | 199 nM | 3100 nM |
| Cc1ccc(Nc2ncc(F)c(Nc3ccc(OC(C)C#N)cc3)n2)cc1S(N)(=O)=O (racemic) [Compound I-67, Racemic N2-(3-Aminosulfonyl-4-methyl)phenyl-N4-[4-(1-cyano)ethoxy]phenyl-5-fluoro-2,4-pyrimidinediamine] | 33.2 nM | 239 nM |
| Cc1cc(Nc2nc(Nc3ccc(F)c(S(N)(=O)=O)c3)ncc2F)cc(C)c1OCC#N [Compound I-35, N2-(3-Aminosulfonyl-4-fluoro)phenyl-N4-(4-cyanomethoxy-3,5-dimethyl)phenyl-5-fluoro-2,4-pyrimidinediamine] | 47 nM | 1820 nM |
| Cc1cc(Nc2nc(Nc3cccc(S(N)(=O)=O)c3)ncc2F)ccc1OC(C)C#N (racemic) [Compound I-61, Racemic N2-(3-Aminosulfonyl)phenyl-N4-[4-(1-cyano)ethoxy-3-methyl]phenyl-5-fluoro-2,4-pyrimidinediamine] | 45.9 nM | 427 nM |
| Cc1cc(Nc2nc(Nc3cccc(S(N)(=O)=O)c3)ncc2F)cc(C)c1OC(C)C#N (racemic) [Compound I-71, Racemic N2-(3-Aminosulfonyl)phenyl-N4-[4-(1-cyano)ethoxy-3,5-dimethyl]phenyl-5-fluoro-2,4-pyrimidinediamine] | 61.8 nM | 328 nM |
| CC(C#N)Oc1ccc(Nc2nc(Nc3ccc(F)c(S(N)(=O)=O)c3)ncc2F)cc1 (racemic) [Compound I-68, Racemic N2-(3-Aminosulfonyl-4-fluoro)phenyl-N4-[4-(1-cyano)ethoxy]phenyl-5-fluoro-2,4-pyrimidinediamine] | 187 nM | 913 nM |
| Cc1ccc(Nc2ncc(F)c(Nc3ccc(NC(=O)CC#N)c(Cl)c3)n2)cc1S(N)(=O)=O [Compound I-83, N2-(3-Aminosulfonyl-4-methylphenyl)-N4-[3-chloro-4-(N-cyanoacetyl)aminophneyl]-5-fluoro-2,4-pyrimidinediamine] | 158 nM |  |
| Cc1ccc(Nc2ncc(F)c(Nc3ccc(OCC#N)cc3)n2)cc1S(=O)(=O)NC(=O)C(C)C [Compound I-37, N4-(4-Cyanomethyleneoxy)phenyl-5-fluoro-N2-(3-isobutyrylaminosulfonyl-4-methyl)phenyl-2,4-pyrimidinediamine] | 499 nM | 5740 nM |
| Cc1ccc(Nc2ncc(F)c(Nc3ccc(OC(C)(C)C#N)cc3)n2)cc1S(N)(=O)=O [Compound I-73, N2-(3-Aminosulfonyl-4-methyl)phenyl-N4-[4-(1-cyano-1-methyl)ethoxy]phenyl-5-fluoro-2,4-pyrimidinediamine] | 120 nM | 1060 nM |
| CC(C)(C#N)Oc1ccc(Nc2nc(Nc3cccc(S(N)(=O)=O)c3)ncc2F)cc1 [Compound I-76, N2-(3-Aminosulfonyl)phenyl-N4-[4-(1-cyano-1-methyl)ethoxy]phenyl-5-fluoro-2,4-pyrimidinediamine] | 101 nM | 1120 nM |
| CC(C)(C#N)Oc1ccc(Nc2nc(Nc3ccc(F)c(S(N)(=O)=O)c3)ncc2F)cc1 [Compound I-74, N2-(3-Aminosulfonyl-4-fluoro)phenyl-N4-[4-(1-cyano-1-methyl)ethoxy]phenyl-5-fluoro-2,4-pyrimidinediamine] | 245 nM | 1760 nM |
| Cc1ccc(Nc2ncc(F)c(Nc3cc(C)c(OC(C)C#N)c(C)c3)n2)cc1S(N)(=O)=O (racemic) [Compound I-72, Racemic N2-(3-Aminosulfonyl-4-methyl)phenyl-N4-[4-(1-cyano)ethoxy-3,5-dimethyl]phenyl-5-fluoro-2,4-pyrimidinediamine] | 52.4 nM | 574 nM |
| Cc1cc(Nc2nc(Nc3ccc(C)c(S(N)(=O)=O)c3)ncc2F)ccc1OC(C)C#N (racemic) [Compound I-62, Racemic N2-(3-Aminosulfonyl-4-methyl)phenyl-N4-[4-(1-cyano)ethoxy-3-methyl]phenyl-5-fluoro-2,4-pyrimidinediamine] | 101 nM | 735 nM |
| N#CCOc1cccc(Nc2nc(Nc3cccc(S(N)(=O)=O)c3)ncc2F)c1 [Compound I-4, N2-(3-Aminosulfonyl)phenyl-N4-(3-cyanomethoxy)phenyl-5-fluoro-2,4-pyrimidinediamine] | 49.1 nM |  |
| Cc1cc(Nc2nc(Nc3ccc(F)c(S(N)(=O)=O)c3)ncc2F)ccc1OC(C)C#N (racemic) [Compound I-69, Racemic N2-(3-Aminosulfonyl-4-fluoro)phenyl-N4-[4-(1-cyano)ethoxy-3-methyl]phenyl-5-fluoro-2,4-pyrimidinediamine] | 118 nM |  |
